According to US10793571B2, “Uses of diazepane derivatives” (Dana-Farber Cancer Institute, Inc., priority 2014, dated 2020):

Experiments:
BRD4.1 = target: T1, BRD4.1 (Homo sapiens, UniProt O60885); test: Acetyl-histone binding assay (AlphaScreen), percent inhibition of BRD4.1; conditions: BRD4.1, 2.5 μM compound concentration, in vitro; read-out: % INHIB (at 2.5 uM)
T1 construct: final concentrations of BRD4.1 at 80 nM; His tag (inferred from the Ni-coated acceptor bead)
Description: (§1) Assays were performed with minor modifications from the manufacturer's protocol (PerkinElmer, USA). All reagents were diluted in 50 mM HEPES, 150 mM NaCl, 0.1% w/v BSA, and 0.01% w/v Tween^□ 20 at pH 7.5 and allowed to equilibrate to room temperature prior to addition to plates. After addition of Alpha beads to master solutions, all subsequent steps were performed in low light conditions. […] Addition to wells was performed with either a multichannel pipet (for optimization experiments) or a Biotek EL406 liquid handler. After a 1000-rpm spin-down for 1 minute, 100 nL of the solutions of the compounds of the invention from stock plates were added by pin transfer using a Janus Workstation (PerkinElmer, USA). The streptavidin-coated donor beads (25 μg/ml final) were added as with previous solution in a 2x, 10 μL volume. Following this addition, the plates were sealed with foil to block light exposure and to prevent evaporation. The plates were spun down again at 1000 rpm for 1 minute. Next, the plates were incubated in the room with the plate reader (for temperature equilibration) for 1.5 hour prior to reading the assay.

MOLM-13 = test: Cellular assay (ATPlite cell viability), MOLM-13; assay type: cell-based; conditions: MOLM-13 cell line
Description: (§2) The compounds of the invention are also evaluated in the BRD4 dependant cell line for the cellular activity to generate cellular IC50 values.
(§3) Cells (e.g., BRD4 dependant cells) were counted and adjusted to 60,000 cells/mL. Using a Biotek EL406, 50 μL, of the cells in media were distributed into 384 well white plates from Thermo. Immediately after plating, compounds of the invention in DMSO were distributed to plates. For large plate sets, cells were returned to a 37° C. incubator while not in use. The compounds were added to plates using a 100 nL 384 well pin transfer manifold on a Janus workstation. Stocks were arrayed in 10 point quadruplicate dose response in DMSO stock in 384-well Greiner compound plates. After addition of the compounds, plates were incubated for three days in a 37° C. incubator. Cell viability was read out using ATPlite from Perkin Elmer. Plates were removed from the incubator and brought to room temperature prior to use. Lyophilized powder was resuspended in lysis buffer and diluted 1:2 with DI water. 25 μL of this solution was added to each well using the Biotek liquid handler. Plates were sealed with adherent aluminum seals prior to vortexing and spinning down at 1000 g for 1 minute. Plates were incubated for 15 minutes at room temperature before signal was read on an Envision Plate Reader.

LRRK2 = LRRK2 (Homo sapiens, UniProt Q5S007); test: LRRK2 IC50; assay type: biochemical
LRRK2, sequence (Q5S007 whole entry): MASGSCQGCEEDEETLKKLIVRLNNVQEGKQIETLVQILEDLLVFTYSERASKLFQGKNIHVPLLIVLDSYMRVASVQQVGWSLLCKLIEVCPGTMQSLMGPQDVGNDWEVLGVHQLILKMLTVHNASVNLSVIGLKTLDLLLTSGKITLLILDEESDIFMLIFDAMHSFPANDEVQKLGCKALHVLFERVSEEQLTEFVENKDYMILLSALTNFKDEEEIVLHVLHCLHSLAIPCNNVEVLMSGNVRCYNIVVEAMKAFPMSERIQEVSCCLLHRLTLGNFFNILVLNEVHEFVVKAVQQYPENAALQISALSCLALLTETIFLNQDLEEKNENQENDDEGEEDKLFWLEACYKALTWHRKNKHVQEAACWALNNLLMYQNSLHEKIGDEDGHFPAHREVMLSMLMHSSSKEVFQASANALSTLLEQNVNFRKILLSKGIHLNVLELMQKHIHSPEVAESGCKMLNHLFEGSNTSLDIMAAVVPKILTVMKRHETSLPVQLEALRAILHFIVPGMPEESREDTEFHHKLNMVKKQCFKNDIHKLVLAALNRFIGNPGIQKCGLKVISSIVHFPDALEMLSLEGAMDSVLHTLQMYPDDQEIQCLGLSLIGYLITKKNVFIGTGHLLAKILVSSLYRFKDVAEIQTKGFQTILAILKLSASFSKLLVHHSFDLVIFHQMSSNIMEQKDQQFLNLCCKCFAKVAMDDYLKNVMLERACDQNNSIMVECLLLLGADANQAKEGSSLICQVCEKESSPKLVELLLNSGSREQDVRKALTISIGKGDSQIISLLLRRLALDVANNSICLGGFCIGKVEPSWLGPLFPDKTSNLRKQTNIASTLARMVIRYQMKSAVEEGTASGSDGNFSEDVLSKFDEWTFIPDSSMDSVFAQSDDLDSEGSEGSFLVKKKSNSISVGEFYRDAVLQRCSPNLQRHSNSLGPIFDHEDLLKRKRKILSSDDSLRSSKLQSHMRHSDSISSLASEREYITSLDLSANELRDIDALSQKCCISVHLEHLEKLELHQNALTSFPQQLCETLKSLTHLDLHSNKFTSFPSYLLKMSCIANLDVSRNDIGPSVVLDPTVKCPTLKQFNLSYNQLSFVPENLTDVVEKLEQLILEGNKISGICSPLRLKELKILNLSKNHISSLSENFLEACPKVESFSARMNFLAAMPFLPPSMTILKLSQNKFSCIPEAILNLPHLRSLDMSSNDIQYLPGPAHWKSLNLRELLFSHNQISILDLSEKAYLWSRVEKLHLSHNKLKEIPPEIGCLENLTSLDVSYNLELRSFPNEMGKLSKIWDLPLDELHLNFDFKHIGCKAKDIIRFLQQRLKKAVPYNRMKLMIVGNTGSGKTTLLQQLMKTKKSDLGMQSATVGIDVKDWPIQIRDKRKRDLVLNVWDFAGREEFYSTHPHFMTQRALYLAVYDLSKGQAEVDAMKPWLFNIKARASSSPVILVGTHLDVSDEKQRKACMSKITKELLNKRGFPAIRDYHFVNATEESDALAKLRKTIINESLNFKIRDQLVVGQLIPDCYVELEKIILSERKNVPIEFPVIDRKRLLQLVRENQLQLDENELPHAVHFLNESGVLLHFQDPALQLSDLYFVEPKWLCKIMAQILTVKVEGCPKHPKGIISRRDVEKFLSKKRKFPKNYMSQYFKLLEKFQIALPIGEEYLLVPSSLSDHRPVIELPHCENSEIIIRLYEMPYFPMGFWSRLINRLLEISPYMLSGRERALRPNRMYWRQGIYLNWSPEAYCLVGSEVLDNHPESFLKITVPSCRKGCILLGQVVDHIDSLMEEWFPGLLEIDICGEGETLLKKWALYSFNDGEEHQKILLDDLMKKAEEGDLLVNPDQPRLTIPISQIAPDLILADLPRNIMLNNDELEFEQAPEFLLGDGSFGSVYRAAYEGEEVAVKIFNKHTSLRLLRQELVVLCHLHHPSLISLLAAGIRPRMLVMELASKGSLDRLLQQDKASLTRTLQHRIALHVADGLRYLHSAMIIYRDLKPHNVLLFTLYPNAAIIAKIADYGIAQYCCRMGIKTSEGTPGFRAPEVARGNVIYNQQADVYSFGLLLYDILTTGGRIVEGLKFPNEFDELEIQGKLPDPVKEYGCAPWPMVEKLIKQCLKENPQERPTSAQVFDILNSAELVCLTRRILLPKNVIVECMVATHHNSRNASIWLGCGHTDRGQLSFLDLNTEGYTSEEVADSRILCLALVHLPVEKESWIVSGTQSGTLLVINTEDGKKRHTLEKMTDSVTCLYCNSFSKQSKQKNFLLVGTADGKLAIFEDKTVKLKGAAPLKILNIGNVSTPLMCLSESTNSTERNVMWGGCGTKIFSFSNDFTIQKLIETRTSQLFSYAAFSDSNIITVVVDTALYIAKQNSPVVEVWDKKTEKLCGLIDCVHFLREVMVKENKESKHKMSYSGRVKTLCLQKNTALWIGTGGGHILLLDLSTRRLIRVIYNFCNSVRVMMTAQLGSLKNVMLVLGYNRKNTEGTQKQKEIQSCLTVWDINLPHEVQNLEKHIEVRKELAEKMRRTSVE

MV411 = test: Cellular assay (ATPlite cell viability), MV411; assay type: cell-based; conditions: MV411 cell line
Description: as §2, §3

797 = test: Cellular assay (ATPlite cell viability), 797; assay type: cell-based; conditions: 797 cell line
Description: as §2, §3

TF-1 = test: Cellular assay (ATPlite cell viability), TF-1; assay type: cell-based; conditions: TF-1 cell line
Description: as §2, §3

NOMO1 = test: Cellular assay (ATPlite cell viability), NOMO1; assay type: cell-based; conditions: NOMO1 cell line
Description: as §2, §3

BRD4 [1] = target: T2, BRD4 (Homo sapiens, UniProt O60885); test: BRD4 IC50 (first BRD4 value listed in Table 2); assay type: binding; conditions: first BRD4 IC50 listed per compound
Description: as §1

Kasumi-1 = test: Cellular assay (ATPlite cell viability), Kasumi-1; assay type: cell-based; conditions: Kasumi-1 cell line
Description: as §2, §3

BRDT = BRDT (Homo sapiens, UniProt Q58F21); test: BRDT IC50; assay type: binding
BRD4 [2] = target: T2, BRD4; test: BRD4 IC50 (second BRD4 value listed in Table 2); assay type: binding; conditions: second BRD4 IC50 listed per compound
CREBBP [3] = target: T3, CREBBP (Homo sapiens, UniProt Q92793); test: CREBBP KD (DiscoveRx); assay type: binding
T3 sequence (Q92793 whole entry): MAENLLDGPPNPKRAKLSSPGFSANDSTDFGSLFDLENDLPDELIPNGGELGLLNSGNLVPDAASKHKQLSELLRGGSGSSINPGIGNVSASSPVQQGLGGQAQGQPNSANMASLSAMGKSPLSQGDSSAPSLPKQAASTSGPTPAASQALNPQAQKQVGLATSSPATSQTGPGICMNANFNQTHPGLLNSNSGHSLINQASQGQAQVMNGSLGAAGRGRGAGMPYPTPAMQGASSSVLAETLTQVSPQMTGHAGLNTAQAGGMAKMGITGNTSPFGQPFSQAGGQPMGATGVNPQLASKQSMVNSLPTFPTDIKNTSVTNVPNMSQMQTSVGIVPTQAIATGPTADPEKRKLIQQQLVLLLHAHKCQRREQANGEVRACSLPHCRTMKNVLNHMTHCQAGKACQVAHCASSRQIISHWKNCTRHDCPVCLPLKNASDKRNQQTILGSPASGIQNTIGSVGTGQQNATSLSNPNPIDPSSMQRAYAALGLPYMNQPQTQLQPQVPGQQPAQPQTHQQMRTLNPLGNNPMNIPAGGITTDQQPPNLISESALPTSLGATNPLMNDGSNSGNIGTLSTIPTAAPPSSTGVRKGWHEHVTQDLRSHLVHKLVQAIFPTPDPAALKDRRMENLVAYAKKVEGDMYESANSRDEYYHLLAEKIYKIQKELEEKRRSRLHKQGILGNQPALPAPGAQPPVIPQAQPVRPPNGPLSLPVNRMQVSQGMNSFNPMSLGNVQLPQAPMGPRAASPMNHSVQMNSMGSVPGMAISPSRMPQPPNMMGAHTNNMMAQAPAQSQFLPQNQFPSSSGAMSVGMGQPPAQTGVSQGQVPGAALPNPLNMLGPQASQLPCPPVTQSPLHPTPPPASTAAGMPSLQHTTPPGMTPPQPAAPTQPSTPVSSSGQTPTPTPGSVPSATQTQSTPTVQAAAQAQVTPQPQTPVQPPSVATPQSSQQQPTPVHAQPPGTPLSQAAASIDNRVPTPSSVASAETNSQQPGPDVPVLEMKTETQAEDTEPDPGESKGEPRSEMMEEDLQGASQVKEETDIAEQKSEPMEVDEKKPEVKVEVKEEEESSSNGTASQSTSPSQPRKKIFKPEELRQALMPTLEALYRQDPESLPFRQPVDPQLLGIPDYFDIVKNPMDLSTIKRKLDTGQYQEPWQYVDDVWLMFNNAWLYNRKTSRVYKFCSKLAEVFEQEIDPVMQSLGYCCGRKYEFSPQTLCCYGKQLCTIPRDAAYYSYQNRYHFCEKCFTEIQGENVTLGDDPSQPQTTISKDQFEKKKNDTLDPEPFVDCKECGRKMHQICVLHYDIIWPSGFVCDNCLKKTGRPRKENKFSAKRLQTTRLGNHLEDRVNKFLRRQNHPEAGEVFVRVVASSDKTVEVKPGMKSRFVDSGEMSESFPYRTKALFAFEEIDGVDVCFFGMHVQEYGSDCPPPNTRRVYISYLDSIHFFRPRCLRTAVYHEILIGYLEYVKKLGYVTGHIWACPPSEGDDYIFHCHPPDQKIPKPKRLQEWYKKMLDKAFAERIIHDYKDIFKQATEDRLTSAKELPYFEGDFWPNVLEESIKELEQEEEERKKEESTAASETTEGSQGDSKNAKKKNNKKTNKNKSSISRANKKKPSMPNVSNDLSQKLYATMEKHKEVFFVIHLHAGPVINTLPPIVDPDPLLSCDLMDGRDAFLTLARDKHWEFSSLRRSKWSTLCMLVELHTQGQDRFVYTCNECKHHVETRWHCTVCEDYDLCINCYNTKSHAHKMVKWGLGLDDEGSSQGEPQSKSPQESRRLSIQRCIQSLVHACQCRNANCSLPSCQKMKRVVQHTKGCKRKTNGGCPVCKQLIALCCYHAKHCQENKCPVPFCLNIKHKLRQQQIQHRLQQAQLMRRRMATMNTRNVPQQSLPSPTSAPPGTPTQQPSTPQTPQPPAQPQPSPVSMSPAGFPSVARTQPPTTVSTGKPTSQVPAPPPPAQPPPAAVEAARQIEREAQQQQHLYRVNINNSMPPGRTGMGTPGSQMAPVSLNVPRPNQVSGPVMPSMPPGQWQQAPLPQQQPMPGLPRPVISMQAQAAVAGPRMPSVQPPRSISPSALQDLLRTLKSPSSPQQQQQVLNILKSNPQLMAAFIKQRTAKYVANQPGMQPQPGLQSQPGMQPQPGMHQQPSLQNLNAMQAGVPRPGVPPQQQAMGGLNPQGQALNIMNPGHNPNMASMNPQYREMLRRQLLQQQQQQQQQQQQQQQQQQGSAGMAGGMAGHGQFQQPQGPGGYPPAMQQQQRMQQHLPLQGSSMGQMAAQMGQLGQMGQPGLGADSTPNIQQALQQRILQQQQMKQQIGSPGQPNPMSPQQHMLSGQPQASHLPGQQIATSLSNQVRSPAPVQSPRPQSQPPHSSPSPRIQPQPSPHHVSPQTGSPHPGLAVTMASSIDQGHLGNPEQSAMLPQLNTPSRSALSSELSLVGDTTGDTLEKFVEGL

CREBBP [4] = target: T3, CREBBP; test: CREBBP IC50; assay type: binding
BRD4 [5] = target: T2, BRD4; test: BRD4 KD (DiscoveRx); assay type: binding

| inhibition at 2.5 µM (BRD4.1) | IC50 (MOLM-13; Homo sapiens) | IC50 (MV411; Homo sapiens, MV4-11) | IC50 (BRD4 [1]) | IC50 (BRDT) | IC50 (BRD4 [2]) | Compound | IC50 797 | IC50 (TF-1; Homo sapiens) | IC50 (NOMO1; Homo sapiens, NOMO-1) | IC50 (Kasumi-1; Homo sapiens) | also measured |
| --- | --- | --- | --- | --- | --- | --- | --- | --- | --- | --- | --- |
| 45.8% |  |  |  |  |  | CCN1CCN(Cc2ccc(Nc3ncc4c(n3)N(C)c3ccccc3C(=O)N4C)cc2C(F)(F)F)CC1 |  |  |  |  |  |
| 36.1% |  |  |  |  |  | COc1cc(N2CCN(C)CC2)ccc1Nc1ncc2c(n1)N(C)c1ccccc1C(=O)N2C |  |  |  |  |  |
| 29.5% |  |  |  |  |  | CCOc1cc(N2CCC(O)CC2)ccc1Nc1ncc2c(n1)N(C)c1ccccc1C(=O)N2C |  |  |  |  |  |
|  | 1270 nM | 549 nM |  |  |  | COc1cc(C(=O)N2CCC(N3CCN(C)CC3)CC2)ccc1Nc1ncc2c(n1)N(C)c1ccccc1C(=O)N2C [Compound 1-226] | 1300 nM | 3360 nM | 2000 nM |  | IC50 (LRRK2): 7 nM |
|  | 4630 nM | 2440 nM | 1990 nM | 5550 nM | 2600 nM | COc1cc(C(=O)N2CCC(N3CCN(C)CC3)CC2)ccc1N(C)c1ncc2c(n1)N(C)c1ccccc1C(=O)N2C [Compound 1-284] | 7420 nM | 6160 nM | 8600 nM | 1860 nM | IC50 (LRRK2): 4000 nM |
|  | 5740 nM | 3480 nM | 2.06 nM | 9610 nM | 5700 nM | CCN(c1ncc2c(n1)N(C)c1ccccc1C(=O)N2C)c1ccc(C(=O)N2CCC(N3CCN(C)CC3)CC2)cc1OC [Compound 2-041] | 7100 nM | 7210 nM | 8300 nM | 2360 nM | IC50 (LRRK2): 3000 nM |
|  | 6610 nM | > 10000 nM | 732 nM | 2730 nM | 1510 nM | CN1C(=O)c2ccccc2N(C)c2nc(Nc3ccc(C(=O)O)cc3OC3CCCC3)ncc21 [Compound 2-043] | 1790 nM | 7100 nM | 6800 nM | 4780 nM |  |
|  | 6.93 nM | 7.1 nM | > 50000 nM |  |  | C[C@@H](Oc1cc(-n2cnc3ccc(CN4CCN(C)CC4)cc32)sc1C(N)=O)c1ccccc1C(F)(F)F [GSK461364, reference compound] | 8 nM |  | 5.91 nM | 7.8 nM | TF-1 IC50 (TF-1; result in words): poor convergence |
|  |  |  |  |  |  | Cc1sc2c(c1C)C(c1ccc(Cl)cc1)=N[C@@H](CC(=O)OC(C)(C)C)c1nnc(C)n1-2 [JQ1, reference compound] | 92 nM |  |  |  | IC50 (MOLM-13): 89.2 nM; IC50 (Kasumi-1): 48.8 nM; IC50 (MV411): 65.6 nM; IC50 (TF-1): 109000 nM; IC50 (NOMO1): 172 nM |
| 20.5% |  |  |  |  |  | COc1cc(C(=O)N2CCC(N3CCN(C)CC3)CC2)ccc1Nc1ncc2c(n1)N(C)c1ccccc1C(=O)N2C [drawing 33] |  |  |  |  |  |

| Compound | inhibition at 2.5 µM (BRD4.1) | IC50 (MOLM-13; Homo sapiens) | IC50 (MV411; Homo sapiens, MV4-11) | IC50 (BRD4 [1]) | IC50 (BRDT) | IC50 (BRD4 [2]) | IC50 797 | IC50 (TF-1; Homo sapiens) | IC50 (NOMO1; Homo sapiens, NOMO-1) | IC50 (Kasumi-1; Homo sapiens) | also measured |
| --- | --- | --- | --- | --- | --- | --- | --- | --- | --- | --- | --- |
| CN1C(=O)c2ccccc2N(C)c2nc(Nc3ccc(N4CCC(O)CC4)cc3)ncc21 | 50.8% |  |  |  |  |  |  |  |  |  |  |
| CN1C(=O)c2ccccc2N(C)c2nc(Nc3ccc(S(N)(=O)=O)cc3)ncc21 [Compound 2-075] |  | 433 nM | 252 nM |  | 2880 nM | 1800 nM | 34 nM | 2140 nM | 2500 nM | 96 nM | Kd (CREBBP [3]): 23 nM; IC50 (BRD4 [1]; unit nm [sic]): 970 nM; IC50 (CREBBP [4]): 431 nM; Kd (BRD4 [5]): 180 nM |
